Patent US10450258B2, “Substituted aromatic compounds for the treatment of pulmonary fibrosis, liver fibrosis, skin fibrosis and cardiac fibrosis” (PROMETIC PHARMA SMT LIMITED, priority 2013, dated 2019)
Counter-ions that a name gives are not always drawn.

What was measured:
[1] = test system: collagen 1 mRNA in NHDF cells; experiment: Inhibition of collagen mRNA in TGF-β-activated NHDF fibroblasts; type: cell-based; conditions: Homo sapiens, compound 0.5 mM
Protocol: (§1) CTGF, collagen 1 and α-SMA are fibrotic markers produced by activated fibroblasts and by epithelial cells that undergo to epithelial-mesenchymal transition (EMT).
(§2) Table 2: Percentage of inhibition of collagen in epithelial cells (HK2 cells) and fibroblasts (NHDF) and percentage of inhibition of α-SMA in fibroblasts (NRK-49F and NHDF) has been determined for several compounds according the invention. In all cases, the mRNA of collagen and α-SMA has been measured, and the inhibition was evaluated in presence of a respective concentration of the tested compound. The compounds have been tested at different concentrations [mM]. All compounds reduce the expression of collagen and α-SMA in HK-2, NHDF and NRK-49F cells.

[2] = test system: α-SMA mRNA in NRK-49F cells; experiment: Inhibition of α-SMA mRNA in TGF-β-activated NRK-49F fibroblasts; type: cell-based, rat
Protocol: as §1, §2

[3] = test system: collagen 1 mRNA in HK-2 cells (epithelial cells); experiment: Inhibition of collagen mRNA in TGF-β-treated HK-2 epithelial cells; type: cell-based; conditions: for inhibition at 500 µM: HK-2, compound 0.5 mM; for Collagen HK-2 cells % inhibition: compound 0.25 mM
Protocol: as §1, §2

[4] = test system: CCl4-induced liver fibrosis mouse model; experiment: CCl4-induced liver fibrosis mouse model; type: in vivo, mouse (male C57BL/6); conditions: CCl4 twice a week for 8 weeks; oral 100 and 200 mg/kg every day, day 1 to day 58; FIG. 22
Text: Hepatic fibrosis is an outcome of many chronic liver diseases, including hepatitis B virus, hepatitis C virus, alcoholic liver disease, non-alcoholic steatohepatitis and diverse chronic intoxication. It was thus desired to evaluate the effect of Compound I on murine CCl4-induced liver fibrosis. Intoxication with CCl4 results in hepatocyte damage, necrosis, inflammation, and fibrosis, which spreads to link the vascular structures that feed into and drain the hepatic sinusoid (the portal tract and central vein radical, respectively), and over 8-30 weeks results in the development of fibrosis to hepatocellular carcinoma. Therefore, evaluation of candidate antifibrotic drugs such as Compound I can be undertaken by treatment of the mice at appropriate time points and histologic, biochemical and cellular readouts may be used to monitor candidate drug efficacy in this model.
CCl4 (10% in corn oil, 2 ml/kg) was intraperitoneally injected twice a week for 16 weeks in male C57BL/6. Compound I (200 mg/kg) was orally administered every day from day 1 to day 113. Mice were euthanasized and histology and liver fibrotic markers were analyzed.
To determine if Compound I has an effect on liver fibrosis, hydroxyproline level was used to measure the collagen content in the tissue, which is indicative of liver fibrosis.
The reduction of collagen level in liver tissue was also observed in histological micrographs using the Masson's Trichrome staining.
The Masson's trichrome stain the cytoplasm, keratin, muscle fibers and intracellular fibers in red colour; nuclei in black colour and collagen (fibrous tissue) in blue color.
Another experiment has been performed with Compound 1 and Compound V where CCL4 (10% in olive oil, 2 ml/kg) was intraperitoneally injected twice a week for 8 weeks in male C57BL/6. Compound 1 and compound V were orally administered (100 and 200 mg/kg) every day from day 1 to day 58. Mice were euthanasized and collagen content (marker of fibrosis) in the liver was quantified by histomorphometry using Masson's trichrome staining.

α-SMA mRNA in NHDF cells = experiment: Inhibition of α-SMA mRNA in TGF-β-activated NHDF fibroblasts; type: cell-based; conditions: Homo sapiens, compound 0.5 mM
Protocol: as §1, §2

[5] = Toxicity related to drug in the bleomycin-induced pulmonary fibrosis mouse model; type: in vivo; conditions: oral, Compound I 200 mg/kg, pirfenidone 400 mg/kg, alone or in combination, solubilized in PBS
Protocol: (§3) It was therefore evaluated side-by-side with Compound I in the bleomycin-induced pulmonary fibrosis mouse model by the same protocol described in Example 4 above. Compound I (200 mg/kg) and pirfenidone (400 mg/kg) were orally administered either alone or in combination.
Compound I and pirfenidone were solubilized in PBS. In the combination therapy, pirfenidone was solubilized in a solution of Compound I. No toxicity was reported with Compound I treatment.

[6] = test system: bleomycin-induced pulmonary fibrosis mouse model; experiment: Bleomycin-induced pulmonary fibrosis mouse model: body weight and lung histology; type: in vivo, mouse (male C57BL6); conditions: oral, Compound I 200 mg/kg, pirfenidone 400 mg/kg
Protocol: Intratracheal instillation of the anticancer drug bleomycin into the mouse results in acute inflammation followed by a chronic fibrotic response. Therefore, evaluation of candidate antifibrotic drugs such as Compound I can be undertaken by treatment of the mice at appropriate time points and histologic, biochemical and cellular readouts may be used to monitor candidate drug efficacy in this model.
(§4) Male C57BL6 mice are administered intratracheal instillation of bleomycin sulphate (0.025 U) at day 0, randomized and administered Compound I (oral administration, 100 mg/kg and 200 mg/kg) on day 7 to day 20.
Lesions score was evaluated using HEP (Hemalun with Eosin/Ploxine) and Masson's trichrome staining. Lesions score was recorded as 1) Consolidation as shown by disrupted lung architecture (cellular and/or fibrosis) and 2) Alveolar wall as shown by thickness and shrinking outside of consolidated area.
as §3
Lesions score was evaluated using HEP (Hemalun with Eosin/Ploxine) and Masson's trichrome staining and recorded as 1) Consolidation as shown by disrupted lung architecture (cellular and/or fibrosis), and 2) Alveolar wall as shown by thickness and shrinking outside of consolidated area.
The lesions score as determined by the percentage of leukocyte infiltration (inflammatory zone) multiplied by the percentage of collagen found in the leukocyte infiltrate was quantified by histomorphometry using Masson's trichrome staining.
Visual grading of pulmonary fibrosis was also determined according to Ashcroft's score. Briefly, the entire fields of each lung section were read by a blinded examiner, and each field was visually graded from 0 to 8. Criteria for grading lung fibrosis were as follows: Grade 0=normal lung; Grade 1=minimal fibrous thickening of alveolar or bronchiolar walls; Grade 3=moderate thickening of walls without obvious damage to lung architecture; Grade 5=increased fibrosis with definitive damage to lung structure and formation of fibrous bands or small fibrous masses; Grade 7=severe distortion of structure and large fibrous area; Grade 8=total fibrous obliteration of lung fields.

[7] = test system: TGF-β, CTGF, IL-23p19, IL-6, collagen 1, fibronectin (FN-1), collagen 3 mRNA in lung tissue; experiment: Real-time PCR of inflammatory and fibrotic marker mRNA in lung tissue, bleomycin-induced pulmonary fibrosis mouse model; type: in vivo, mouse (male C57BL6); conditions: oral, Compound I 200 mg/kg, pirfenidone 400 mg/kg, alone or combined
Protocol: as §4
Further analysis of the lung tissue was undertaken. CTGF, collagen 1 and IL-23p19 mRNA expression was quantified by real-time PCR.
as §3
In order to determine the effect of Compound I on pulmonary fibrosis, further analysis of the lung tissue was undertaken. TGF-β, CTGF, IL-23 and IL-6 mRNA expression was quantified by real-time PCR. […] Oral administration of pirfenidone had no effect on CTGF mRNA expression but decreased TGF-β, IL-23 and IL-6 mRNA expression. […]

[8] = Rattus norvegicus, NRK-49F, compound 0.5 mM
[9] = Rattus norvegicus, NRK-49F, compound 0.25 mM

## CCCCCc1cc(O)cc(CC(=O)O)c1 [Compound II, Sodium Salt of 3-hydroxy-5-pentylphenylacetic acid]
[1]
  inhibition at 500 µM: 40%
[2]; [8]
  inhibition at 500 µM: 66%
[3]; Homo sapiens
  inhibition at 500 µM: 43%

## CCCCCc1cc(F)cc(CC(=O)O)c1 [Compound III, Sodium Salt of 3-fluoro-5-pentylphenylacetic acid]
[2]; [9]
  inhibition at 250 µM: 100%
[3]; Homo sapiens
  inhibition at 500 µM: 100%

## CCC/C=C/c1cccc(CC(=O)O)c1 [Compound IV, Sodium Salt of E-(3-pent-1-enyl-phenyl)acetic acid]
[2]; [8]
  inhibition at 500 µM: 64%

## CCCCCc1cccc(C(F)C(=O)[O-])c1.[Na+] (stereo not drawn) [Compound IX, Sodium Salt of 2-Fluoro-2-(3-pentylphenyl)acetic acid]
[2]; compound 0.5 mM
  α-SMA NRK-49F cells % inhibition: 82%

## CCCCCc1ccc(O)c(CC(=O)O)c1 [Compound V, Sodium Salt of (2-hydroxy-5-pentylphenyl)acetic acid]
[1]
  inhibition at 500 µM: 100%
[4]
  collagen content in liver (histomorphometry, Masson's trichrome): significant reduction
[2]; [8]
  inhibition at 500 µM: 100%
[3]; Homo sapiens
  inhibition at 500 µM: 100%
α-SMA mRNA in NHDF cells
  inhibition at 500 µM: 100%

## CCCCCc1cc(CCC(=O)O)ccc1F [Compound VI, Sodium Salt of 3-(4-fluoro-3-pentylphenyl)propionic acid]
[2]; Rattus norvegicus, NRK-49F, compound 0.125 mM
  inhibition at 125 µM: 90%

## CCCCCc1cccc(CCC(=O)[O-])c1.[Na+] [Compound VII, Sodium Salt of 3-(3-pentylphenyl)propionic acid]
[2]; compound 0.25 mM
  α-SMA NRK-49F cells % inhibition: 100%

## CCCCCc1cccc(C(C)C(=O)[O-])c1.[Na+] (stereo not drawn) [Compound VIII, Sodium Salt of 2-(3-pentylphenyl)propionic acid]
[2]; compound 0.25 mM
  α-SMA NRK-49F cells % inhibition: 86%

## CCCCCc1cccc(C(C)(C)C(=O)[O-])c1.[Na+] [Compound X, Sodium Salt of 2-methyl-2-(3-pentylphenyl)propionic acid]
[2]; compound 0.1 mM
  α-SMA NRK-49F cells % inhibition: 46%

## CCCCCCc1cccc(CC(=O)O)c1 [Compound XI, Sodium Salt of 2-(3-Hexylphenyl)acetic acid]
[2]; Rattus norvegicus, NRK-49F, compound 0.1 mM
  inhibition at 100 µM: 80%

## CCCCC=Cc1cccc(CC(=O)[O-])c1.[Na+] [Compound XII, Sodium Salt of 2-(3-(Hex-1-enyl)phenyl)acetic acid]
[2]; compound 0.1 mM
  α-SMA NRK-49F cells % inhibition: 49%

## CCCC=Cc1ccc(F)c(CC(=O)[O-])c1.[Na+] [Compound XIII, Sodium Salt of 2-(2-Fluoro-5-(pent-1-enyl)phenyl)acetic acid]
[2]; compound 0.5 mM
  α-SMA NRK-49F cells % inhibition: 84%

## CCCCCc1cc(CC(=O)O)ccc1O [Compound XIV, Sodium Salt of 2-(4-Hydroxy-3-pentylphenyl)acetic acid]
[1]
  inhibition at 500 µM: 26%
[2]; [8]
  inhibition at 500 µM: 92%
[3]; Homo sapiens
  inhibition at 500 µM: 72%

## CCCCCc1cccc(CC(=O)[O-])c1O.[Na+] [Compound XIX, Sodium Salt of 2-(2-Hydroxy-3-pentylphenyl)acetic acid]
[2]; compound 0.25 mM
  α-SMA NRK-49F cells % inhibition: 100%
[3]
  Collagen HK-2 cells % inhibition: 100%

## CCCCCc1cc(CC(=O)O)ccc1F [Compound XV, Sodium Salt of 2-(4-Fluoro-3-pentylphenyl)acetic acid]
[2]; [8]
  inhibition at 500 µM: 100%
[3]; Homo sapiens
  inhibition at 500 µM: 100%

## CCCCCc1cccc(CC(=O)O)c1F [Compound XVI, Sodium Salt of 2-(2-Fluoro-3-pentylphenyl)acetic acid]
[2]; [9]
  inhibition at 250 µM: 100%
[3]; Homo sapiens
  inhibition at 500 µM: 100%

## CCCCCc1cc(CCC(=O)[O-])ccc1O.[Na+] [Compound XVII, Sodium Salt of 3-(4-Hydroxy-3-pentylphenyl)propanoic acid]
[2]; compound 0.5 mM
  α-SMA NRK-49F cells % inhibition: 66%
[3]
  Collagen HK-2 cells % inhibition: 0%

## CCCCCc1cccc(C(=O)C(=O)[O-])c1.[Na+] [Compound XVIII, Sodium Salt of 2-Oxo-2-(3-pentylphenyl)acetic acid]
[2]; compound 0.25 mM
  α-SMA NRK-49F cells % inhibition: 100%

## CCCCCc1cc(O)c(Cc2ccccc2)c(CC(=O)O)c1 [Compound XX, Sodium Salt of 2-(2-Benzyl-3-hydroxy-5-pentylphenyl)acetic acid]
[2]; Rattus norvegicus, NRK-49F, compound 0.0625 mM
  inhibition at 62.5 µM: 95%
[3]; Homo sapiens, HK-2, compound 0.125 mM
  inhibition at 125 µM: 73%

## Cc1ccc(=O)n(-c2ccccc2)c1 [Pirfenidone, pirfenidone, reference compound]
[5]
  Toxicity related to drug: Vertigo ++++
[5]; listed as pirfenidone
  Toxicity related to drug: severe vertigo
[6]; alone or combined, FIG. 8
  histological lesion score of lungs (HEP and Masson's trichrome): no reduction of fibrosis at the histological level
[6]; alone or combined, FIG. 11
  visual grading of pulmonary fibrosis (Ashcroft's score): weak activity
[6]; FIG. 10
  lesions and fibrosis in lungs (photomicrographs stained with HEP): no effect
[7]; FIG. 12
  TGF-β mRNA expression in lungs: decreased
[7]; FIG. 13
  CTGF mRNA expression in lungs: no effect
[7]; FIG. 14
  IL-23 mRNA expression in lungs: decreased
[7]; FIG. 15
  IL-6 mRNA expression in lungs: decreased
[7]; FIG. 18
  collagen 3 mRNA expression in lungs: no effect
[7]; reduction to the control level, FIG. 16
  collagen 1 mRNA expression in lungs: significant reduction
[7]; reduction to the control level, FIG. 17
  fibronectin (FN-1) mRNA expression in lungs: significant reduction
